According to PMC2994263 (Chemical biology & drug design, 2010):

What was measured:
[1] = system: ERK1/2 activation by AngII; assay: ERK1/2 phosphorylation; assay type: cell-based, human; details: 10 μM peptide; 10 nM AngII, 5 min; western blot; average of three gels
AT1 receptor [2] = assay: Phosphoinositide; assay type: cell-based, human
[3] = system: Akt/PKB (Ser473) phosphorylation by AngII via endogenous AT1 receptor; assay: Akt/PKB phosphorylation; assay type: cell-based, human; details: 10 nM AngII, 5 min
[4] = system: NFκB p65 (Ser536) phosphorylation by AngII; assay: NFκB p65 phosphorylation; assay type: cell-based, human; details: 10 nM AngII, 5 min
AT1 receptor [5] = assay: Calcium mobilization in AT1-transfected HEK-293 cells; assay type: cell-based, human; details: 10 nM AngII, Fura-2/AM fluorescence
AT1 receptor [6] = details: AT1 cDNA transfected HEK-293 cells; ref [10]; cited from earlier work
[7] = system: mutant AT1 receptor containing the IC2 of the BKB2R; details: HEK-293 cells, ref [10]; cited from earlier work
bradykinin B2 receptor = bradykinin B2 receptor cDNA transfected cells; ref [10]; cited from earlier work

Substance: GRKKRRQRRRPPQGGVHPMKSRLRRT [AT1 IC2 peptide]
- effect on ERK1/2 activation by AngII (in words) [1]: no effect

Substance: Angiotensin II (DRVYIHPF; Angiotensin-2; UniProt P01019 25-32, looked up) [AngII]
- PI turnover induced by AngII (in words) (AT1 receptor [2]; 10 nM AngII, 30 min at 37°C, no peptide): induced a marked PI turnover
- activation of Akt/PKB by AngII (in words) ([3]; no peptide): sizable activation of Akt/PKB
- Ser536 phosphorylation of p65 by AngII (in words) ([4]; no peptide): clearly enhanced
- calcium influx caused by AngII (in words) (AT1 receptor [5]; no peptide): strong calcium influx
- Akt phosphorylation (in words) (AT1 receptor [6]): increases Akt phosphorylation
- pAkt (in words) [7]: decreased pAkt

Substance: GRKKRRQRRRPPQGGVKTMSMGRMRG [control peptide]
- effect on AngII induced PI turnover (in words) (AT1 receptor [2]; 10 μM peptide, 30 min before 10 nM AngII): unhindered
- effect on AngII induced Akt phosphorylation (in words) ([3]; 10 μM peptide): no effect
- effect on AngII dependent NFκB activation / p65 phosphorylation (in words) ([4]; 10 μM peptide): no inhibitory effect
- effect on ERK1/2 activation by AngII (in words) [1]: neither the control peptide nor the IC2 peptide at 10 μM affected the activation of this MAP kinase by AngII
- effect on AngII promoted Ca2+ entry (in words) (AT1 receptor [5]; 10 μM peptide): no effect

Substance: bradykinin
- Akt phosphorylation (in words) (bradykinin B2 receptor): decreases it
